Numbers after ± are expanded uncertainties.
Settings: Liquid; for mass density: Vibrating Wire Viscometer; for viscosity: Vibrating wire viscometry

CC(C)OC(C)C [diisopropyl ether]
mass density (243.15 K, 100 kPa): 772.385 ± 1.6 kg/m3 | viscosity (243.15 K, 100 kPa): 0.6191 ± 0.015 mPa·s | mass density (243.15 K, 4660 kPa): 776.195 ± 1.6 kg/m3 | viscosity (243.15 K, 4660 kPa): 0.6466 ± 0.016 mPa·s | mass density (243.15 K, 10070 kPa): 780.42 ± 1.6 kg/m3 | viscosity (243.15 K, 10070 kPa): 0.6826 ± 0.016 mPa·s | mass density (243.15 K, 15370 kPa): 784.377 ± 1.6 kg/m3 | viscosity (243.15 K, 15370 kPa): 0.7177 ± 0.017 mPa·s | mass density (243.15 K, 20860 kPa): 788.392 ± 1.6 kg/m3 | viscosity (243.15 K, 20860 kPa): 0.7529 ± 0.018 mPa·s | mass density (253.15 K, 100 kPa): 762.804 ± 1.6 kg/m3 | viscosity (253.15 K, 100 kPa): 0.5343 ± 0.013 mPa·s | mass density (253.15 K, 4720 kPa): 766.842 ± 1.6 kg/m3 | viscosity (253.15 K, 4720 kPa): 0.5601 ± 0.014 mPa·s | mass density (253.15 K, 9990 kPa): 771.35 ± 1.6 kg/m3 | viscosity (253.15 K, 9990 kPa): 0.5898 ± 0.014 mPa·s | mass density (253.15 K, 15400 kPa): 775.704 ± 1.6 kg/m3 | viscosity (253.15 K, 15400 kPa): 0.6187 ± 0.015 mPa·s | mass density (253.15 K, 20740 kPa): 779.692 ± 1.6 kg/m3 | viscosity (253.15 K, 20740 kPa): 0.65 ± 0.016 mPa·s | mass density (263.15 K, 100 kPa): 753.037 ± 1.6 kg/m3 | viscosity (263.15 K, 100 kPa): 0.4687 ± 0.012 mPa·s | mass density (263.15 K, 4470 kPa): 757.298 ± 1.6 kg/m3 | viscosity (263.15 K, 4470 kPa): 0.4896 ± 0.012 mPa·s | mass density (263.15 K, 9490 kPa): 761.805 ± 1.6 kg/m3 | viscosity (263.15 K, 9490 kPa): 0.5141 ± 0.013 mPa·s | mass density (263.15 K, 14490 kPa): 766.126 ± 1.6 kg/m3 | viscosity (263.15 K, 14490 kPa): 0.5388 ± 0.013 mPa·s | mass density (263.15 K, 19640 kPa): 770.142 ± 1.6 kg/m3 | viscosity (263.15 K, 19640 kPa): 0.5638 ± 0.014 mPa·s | mass density (273.15 K, 100 kPa): 743.309 ± 1.6 kg/m3 | viscosity (273.15 K, 100 kPa): 0.4142 ± 0.011 mPa·s | mass density (273.15 K, 4690 kPa): 748.026 ± 1.6 kg/m3 | viscosity (273.15 K, 4690 kPa): 0.4344 ± 0.011 mPa·s | mass density (273.15 K, 10010 kPa): 753.179 ± 1.6 kg/m3 | viscosity (273.15 K, 10010 kPa): 0.4579 ± 0.011 mPa·s | mass density (273.15 K, 15290 kPa): 757.99 ± 1.6 kg/m3 | viscosity (273.15 K, 15290 kPa): 0.4815 ± 0.012 mPa·s | mass density (273.15 K, 20420 kPa): 762.359 ± 1.6 kg/m3 | viscosity (273.15 K, 20420 kPa): 0.5042 ± 0.013 mPa·s | mass density (283.15 K, 100 kPa): 733.393 ± 1.5 kg/m3 | viscosity (283.15 K, 100 kPa): 0.3689 ± 0.0096 mPa·s | mass density (283.15 K, 4700 kPa): 738.525 ± 1.5 kg/m3 | viscosity (283.15 K, 4700 kPa): 0.3877 ± 0.01 mPa·s | mass density (283.15 K, 10100 kPa): 744.147 ± 1.6 kg/m3 | viscosity (283.15 K, 10100 kPa): 0.4088 ± 0.01 mPa·s | mass density (283.15 K, 15460 kPa): 749.321 ± 1.6 kg/m3 | viscosity (283.15 K, 15460 kPa): 0.4306 ± 0.011 mPa·s | mass density (283.15 K, 21360 kPa): 754.612 ± 1.6 kg/m3 | viscosity (283.15 K, 21360 kPa): 0.456 ± 0.011 mPa·s | mass density (293.15 K, 100 kPa): 723.318 ± 1.5 kg/m3 | viscosity (293.15 K, 100 kPa): 0.3311 ± 0.0088 mPa·s | mass density (293.15 K, 4470 kPa): 728.638 ± 1.5 kg/m3 | viscosity (293.15 K, 4470 kPa): 0.3474 ± 0.0091 mPa·s | mass density (293.15 K, 9590 kPa): 734.393 ± 1.5 kg/m3 | viscosity (293.15 K, 9590 kPa): 0.3671 ± 0.0096 mPa·s | mass density (293.15 K, 14750 kPa): 739.779 ± 1.5 kg/m3 | viscosity (293.15 K, 14750 kPa): 0.3855 ± 0.0099 mPa·s | mass density (293.15 K, 20450 kPa): 745.301 ± 1.6 kg/m3 | viscosity (293.15 K, 20450 kPa): 0.4079 ± 0.01 mPa·s | mass density (303.15 K, 100 kPa): 713.113 ± 1.5 kg/m3 | viscosity (303.15 K, 100 kPa): 0.299 ± 0.0081 mPa·s | mass density (303.15 K, 4440 kPa): 718.817 ± 1.5 kg/m3 | viscosity (303.15 K, 4440 kPa): 0.3124 ± 0.0084 mPa·s | mass density (303.15 K, 9500 kPa): 725.014 ± 1.5 kg/m3 | viscosity (303.15 K, 9500 kPa): 0.331 ± 0.0088 mPa·s | mass density (303.15 K, 14650 kPa): 730.787 ± 1.5 kg/m3 | viscosity (303.15 K, 14650 kPa): 0.3496 ± 0.0092 mPa·s | mass density (303.15 K, 19650 kPa): 735.942 ± 1.5 kg/m3 | viscosity (303.15 K, 19650 kPa): 0.3668 ± 0.0096 mPa·s | mass density (313.15 K, 100 kPa): 702.804 ± 1.5 kg/m3 | viscosity (313.15 K, 100 kPa): 0.2703 ± 0.0076 mPa·s | mass density (313.15 K, 4840 kPa): 709.502 ± 1.5 kg/m3 | viscosity (313.15 K, 4840 kPa): 0.2869 ± 0.0079 mPa·s | mass density (313.15 K, 10140 kPa): 716.438 ± 1.5 kg/m3 | viscosity (313.15 K, 10140 kPa): 0.3038 ± 0.0082 mPa·s | mass density (313.15 K, 15550 kPa): 722.843 ± 1.5 kg/m3 | viscosity (313.15 K, 15550 kPa): 0.3213 ± 0.0086 mPa·s | mass density (313.15 K, 21490 kPa): 729.298 ± 1.5 kg/m3 | viscosity (313.15 K, 21490 kPa): 0.3414 ± 0.009 mPa·s | mass density (323.15 K, 100 kPa): 692.225 ± 1.5 kg/m3 | viscosity (323.15 K, 100 kPa): 0.2468 ± 0.0071 mPa·s | mass density (323.15 K, 4760 kPa): 699.461 ± 1.5 kg/m3 | viscosity (323.15 K, 4760 kPa): 0.2615 ± 0.0074 mPa·s | mass density (323.15 K, 10370 kPa): 707.408 ± 1.5 kg/m3 | viscosity (323.15 K, 10370 kPa): 0.2776 ± 0.0077 mPa·s | mass density (323.15 K, 15480 kPa): 713.832 ± 1.5 kg/m3 | viscosity (323.15 K, 15480 kPa): 0.2946 ± 0.008 mPa·s | mass density (323.15 K, 20780 kPa): 720.04 ± 1.5 kg/m3 | viscosity (323.15 K, 20780 kPa): 0.311 ± 0.0084 mPa·s | mass density (333.15 K, 100 kPa): 681.435 ± 1.4 kg/m3 | viscosity (333.15 K, 100 kPa): 0.2254 ± 0.0067 mPa·s | mass density (333.15 K, 4750 kPa): 689.427 ± 1.5 kg/m3 | viscosity (333.15 K, 4750 kPa): 0.2389 ± 0.0069 mPa·s | mass density (333.15 K, 10360 kPa): 697.963 ± 1.5 kg/m3 | viscosity (333.15 K, 10360 kPa): 0.2554 ± 0.0073 mPa·s | mass density (333.15 K, 15670 kPa): 705.137 ± 1.5 kg/m3 | viscosity (333.15 K, 15670 kPa): 0.2716 ± 0.0076 mPa·s | mass density (333.15 K, 20890 kPa): 711.63 ± 1.5 kg/m3 | viscosity (333.15 K, 20890 kPa): 0.2848 ± 0.0078 mPa·s | mass density (343.15 K, 130 kPa): 670.401 ± 1.4 kg/m3 | viscosity (343.15 K, 130 kPa): 0.2064 ± 0.0063 mPa·s | mass density (343.15 K, 4390 kPa): 678.519 ± 1.4 kg/m3 | viscosity (343.15 K, 4390 kPa): 0.2183 ± 0.0065 mPa·s | mass density (343.15 K, 9530 kPa): 687.069 ± 1.5 kg/m3 | viscosity (343.15 K, 9530 kPa): 0.2335 ± 0.0068 mPa·s | mass density (343.15 K, 14740 kPa): 694.891 ± 1.5 kg/m3 | viscosity (343.15 K, 14740 kPa): 0.2471 ± 0.0071 mPa·s | mass density (343.15 K, 21230 kPa): 703.496 ± 1.5 kg/m3 | viscosity (343.15 K, 21230 kPa): 0.2649 ± 0.0074 mPa·s | mass density (353.15 K, 200 kPa): 659.151 ± 1.4 kg/m3 | viscosity (353.15 K, 200 kPa): 0.1889 ± 0.006 mPa·s | mass density (353.15 K, 4830 kPa): 668.72 ± 1.4 kg/m3 | viscosity (353.15 K, 4830 kPa): 0.203 ± 0.0062 mPa·s | mass density (353.15 K, 10320 kPa): 678.629 ± 1.4 kg/m3 | viscosity (353.15 K, 10320 kPa): 0.2176 ± 0.0065 mPa·s | mass density (353.15 K, 15760 kPa): 687.163 ± 1.4 kg/m3 | viscosity (353.15 K, 15760 kPa): 0.2324 ± 0.0068 mPa·s | mass density (353.15 K, 21100 kPa): 694.71 ± 1.5 kg/m3 | viscosity (353.15 K, 21100 kPa): 0.2466 ± 0.0071 mPa·s | mass density (363.15 K, 230 kPa): 647.498 ± 1.4 kg/m3 | viscosity (363.15 K, 230 kPa): 0.1736 ± 0.0057 mPa·s | mass density (363.15 K, 4730 kPa): 657.763 ± 1.4 kg/m3 | viscosity (363.15 K, 4730 kPa): 0.1871 ± 0.006 mPa·s | mass density (363.15 K, 10170 kPa): 668.51 ± 1.4 kg/m3 | viscosity (363.15 K, 10170 kPa): 0.2014 ± 0.0062 mPa·s | mass density (363.15 K, 15830 kPa): 678.192 ± 1.4 kg/m3 | viscosity (363.15 K, 15830 kPa): 0.2152 ± 0.0065 mPa·s | mass density (363.15 K, 20860 kPa): 685.734 ± 1.4 kg/m3 | viscosity (363.15 K, 20860 kPa): 0.2294 ± 0.0067 mPa·s | mass density (373.15 K, 310 kPa): 635.452 ± 1.4 kg/m3 | viscosity (373.15 K, 310 kPa): 0.1602 ± 0.0055 mPa·s | mass density (373.15 K, 4730 kPa): 646.883 ± 1.4 kg/m3 | viscosity (373.15 K, 4730 kPa): 0.1721 ± 0.0057 mPa·s | mass density (373.15 K, 9630 kPa): 657.52 ± 1.4 kg/m3 | viscosity (373.15 K, 9630 kPa): 0.1854 ± 0.0059 mPa·s | mass density (373.15 K, 15600 kPa): 668.559 ± 1.4 kg/m3 | viscosity (373.15 K, 15600 kPa): 0.2008 ± 0.0062 mPa·s | mass density (373.15 K, 21680 kPa): 678.358 ± 1.4 kg/m3 | viscosity (373.15 K, 21680 kPa): 0.2152 ± 0.0065 mPa·s
